Laboratory results taken from paper PMC10223284, “Category-Based Toxicokinetic Evaluations of Data-Poor Per- and Polyfluoroalkyl Substances (PFAS) using Gas Chromatography Coupled with Mass Spectrometry” (Toxics, 2023).
“And” between values parts separate entries of the source, which are not always exact repeats. Equal values may be shown once. Read-outs that look alike come from different tables or passages of the source.

Experiments:
[1] = Abiotic loss in negative controls of the hepatocyte clearance assay (cell-free media, metabolically inactivated hepatocytes); assay type: in vitro ADME
In short: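 Test compound at 1 μM incubated at 37 °C with shaking in complete William's medium E, either cell-free or with metabolically inactivated hepatocytes, then quenched with ice-cold acetonitrile for quantitative analysis.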

human plasma [2] = system: human plasma
human plasma [3] = conditions: for % remaining_PPB / PPB_Stab_Fail: plasma
Method: (§2) Three replicates were run per experiment, with 4NT included as a reference compound in each to evaluate assay performance. All PFAS and 4NT, prepared at a 3 mM working stock, were added to human plasma to achieve a final, thoroughly mixed assay concentration of 10 μM, incubated at 37 °C for 1 h with shaking. […] After UC, the aqueous fraction (AF; i.e., supernatant devoid of plasma proteins/lipoproteins/fatty acids) was collected and transferred to a new tube. The second aliquot maintained at 37 °C was collected (T5hr). At the relevant time points, each volume of sample was combined with 3 volumes of vigorously mixed ice-cold acetonitrile with the labeled IS and stored for 10 min at −20 °C prior to centrifugation at 12,000× g for 10 min at 4 °C. The supernatant was collected and stored at <−70 °C until quantitative analysis. […] Furthermore, chemical stability in plasma over the assay time course was assessed using the T1hr and T5hr samples.
(§3) Percent chemical remaining at the end of the UC assay (T5hr/T1hr) was used to remove unstable chemicals from further evaluation.

[4] = Hepatic metabolic stability (hepatocyte clearance) assay, substrate depletion; assay type: in vitro ADME, human; conditions: both sexes, human, hepatocytes
In short: (§1)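 Pooled 50-donor human cryopreserved hepatocytes (50,000 cells/100 μL) incubated with 1 μM compound at 37 °C with shaking. Parent loss quantified against internal standards over time to T240 in triplicate; T½ and Clint (μL/min/million cells) from ln concentration vs time, corrected for abiotic loss in cell-free and inactivated-hepatocyte controls.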

[5] = system: pooled human cryopreserved primary hepatocyte suspensions; assay: as above; assay type: in vitro ADME; conditions: for Linear Regression Results, Best-Fit Values, Slope: hepatocyte time course
In short: as §1

[6] = In vitro-in vivo extrapolation (IVIVE) to Css and administered equivalent dose (AED); design: species or system human; conditions: for Clhep: IVIVE, hepatocyte Clint scaled to whole-liver clearance; for AED: administered equivalent dose from LOEC and Css; for Fub: fub=fup/(B:P), Fub set to 1 if needed; for CLint: scaled with HPGL 110 mill cells/g, Vl 1596 g
In short: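 Measured plasma protein binding (fup) and hepatocyte Clint served as IVIVE inputs to estimate human steady-state plasma concentration (Css). fup was converted to blood unbound fraction using blood:plasma partitioning, and Clint was scaled to whole-liver clearance (L/h). AEDs were derived by combining Css with published in vitro lowest-observed effective concentrations.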

human primary cells = conditions: cited from earlier work
in vitro = conditions: both, human, plasma
human plasma [7] = assay: Chemical stability in plasma over the UC assay time course (T5hr/T1hr)
Method: as §2, §3

human plasma [8] = assay: Ultracentrifugation (UC) plasma protein binding assay, fraction unbound in plasma (fup)
[9] = flag for stability failure in hepatocyte clearance assay controls (1 or Fst = fail, 0 = pass)
[10] = hepatocyte incubation, Rep 1-3, start conc 1000 nM
[11] = heat treated hepatocytes control, 0 vs 240 min
[12] = heat treated hepatocytes, Rep 1-3
[13] = Assuming 1 mg/kg/day dose rate, BW 70 kg
[14] = human steady-state plasma concentration, assuming 1 mg/kg/day dosage
[15] = BioSeek lowest-observed effect concentration used for AED
[16] = minimum lowest-observed effect concentration, BioSeek platform

**Q.** Which Hep_Stab_Fail [1, 9] does the source give for `C=C(C)C(=O)OCC(F)(F)C(F)(F)C(F)(F)C(F)(F)C(F)(F)C(F)(F)C(F)(F)F` [1H,1H-Perfluorooctyl methacrylate] here?
**A.** 1

**Q.** And the Fup.Med (human plasma [2])?
**A.** 0.0638

**Q.** And the Fup.point (human plasma [2])?
**A.** 0.0665

**Q.** And the Mean fu (human plasma [2]; human, plasma)?
**A.** 0.1300

**Q.** And the Fstable.Med (human plasma [3])?
**A.** 0.042

**Q.** And the Unstable (human plasma [3])?
**A.** Y

**Q.** And the “% remaining_PPB” value (human plasma [3]; human)?
**A.** 49%

**Q.** And the PPB_Stab_Fail (human plasma [3]; human)?
**A.** 0

**Q.** Which results are given for `NC(=O)C(F)(F)C(F)(F)C(F)(F)C(F)(F)C(N)=O` [Octafluoroadipamide]?
**A.** hepatocyte CLint at 1 μM ([4]; background-subtracted, read-out: Bkgd-Sub Clearance (µL/min/106 hepatocytes)): 2.95 µL/min/1e6 cells; hepatocyte CLint at 1 μM ([4]; pooled human hepatocyte suspensions, 1 μM, read-out: In Vitro Clint): 2.95 µL/min/1e6 cells; hepatocyte CLint at 1 μM ([4]; unadjusted hepatocyte intrinsic clearance, read-out: Unadj in vitro Clint): 5.29 µL/min/1e6 cells; hepatocyte CLint at 1 μM ([4]; hepatocyte time course, NS = slope not significant, read-out: Linear Regression Results, Best-Fit Values, Clearance): 5.29 µL/min/1e6 cells; half-life at 1 μM ([4]; hepatocyte time course, NS = slope not significant, read-out: Linear Regression Results, Best-Fit Values, Half Life): 4.37 h; Concentration (nM), Time 0 min [5, 10]: 263.339 nM and 217.701 nM and 209.817 nM; Concentration (nM), Time 15 min [5, 10]: 291.912 nM and 225.036 nM and 414.445 nM; Concentration (nM), Time 30 min [5, 10]: 391.931 nM and 314.083 nM and 336.529 nM; Concentration (nM), Time 60 min [5, 10]: 437.175 nM and 457.948 nM and 302.199 nM; Concentration (nM), Time 120 min [5, 10]: 293.394 nM and 338.799 nM and 278.045 nM; Linear Regression Results, Best-Fit Values, Slope [5]: -0.002646; half-life at 1 μM ([1]; both sexes, human, heat treated hepatocytes control, 0 vs 240 min, read-out: HT BkgdCl, Half Life): 7.63 h; half-life at 1 μM ([1]; buffer, no cells control, 0 vs 240 min, read-out: No Cells BkgdCl, Half Life): 9.88 h; Hep_Stab_Fail [1, 9]: 0; HT BkgdCl, Slope [1, 11]: -0.001514; Negative Controls, Heat Treated (HT), concentration at 0 min [1, 12]: 209.171 nM and 207.599 nM and 206.567 nM; Negative Controls, Heat Treated (HT), concentration at 240 min [1, 12]: 153.885 nM and 136.838 nM and 143.186 nM; No Cells BkgdCl, Slope ([1]; no cells control, 0 vs 240 min): -0.00117; Negative Controls, No cells (NC), concentration at 0 min ([1]; no cells, Rep 1-3): 214.709 nM and 240.687 nM and 228.618 nM; Negative Controls, No cells (NC), concentration at 240 min ([1]; no cells, Rep 1-3): 175.164 nM and 151.709 nM and 191.604 nM; Css [6, 13]: 0.10 mg/L and 0.34 uM; Clhep [6]: 23.099 L/h; AED [6]: 5.8401 mg/kg/day; Fub [6]: 1; Css [6, 14]: 0.34 µM; CLint [6]: 517902 µL/min; LOEC (human primary cells; [15]): 2.00 µM; LOEC (human primary cells; [16]): 2 µM; fraction unbound (in vitro; Fraction Unbound (fu), Run-specific Avg, run-specific average): 0.67; fraction unbound (in vitro; Fraction Unbound (fu), replicate A, individual replicate A of the UC run dated in c8): 0.704; fraction unbound (in vitro; Fraction Unbound (fu), replicate B, individual replicate B of the UC run dated in c8): 0.633; fraction unbound (in vitro; Fraction Unbound (fu), replicate C, individual replicate C of the UC run dated in c8): 0.732; fraction unbound (in vitro; Mean Fu (fraction unbound), mean over all UC runs and replicates, human plasma): 0.82; fraction unbound (in vitro; Mean fu, fraction unbound in human plasma, ultracentrifugation, some values based on eLOQ): 0.82; PPB_Stab_Fail (human plasma [7]; flag for stability failure in the plasma protein binding assay (1 = fail, 0 = pass)): 0; Mean Stability (T5hr/T1hr) (human plasma [7]; mean over all UC runs and replicates, human plasma): 0.977; Fstable.Med (human plasma [7]; median fraction stable in plasma, UC assay Level4): 0.546; Stability (T5hr/ T1hr), Run-specific Avg (human plasma [7]; run-specific average): 0.982; fup (human plasma [8]; human plasma, 10 μM, ultracentrifugation, 37 °C): 0.8201; Fup.Med (human plasma [8]; median fraction unbound in plasma, UC assay Level4): 0.864; Fup.point (human plasma [8]; point estimate of fraction unbound in plasma, UC assay Level4): 0.834

**Q.** With `C=C(C)C(=O)OCC(F)(F)C(F)(F)C(F)(F)F` [1H,1H-Perfluorobutyl methacrylate] as the compound, how does the Hep_Stab_Fail [1, 9] read?
**A.** 1

**Q.** What about the Fup.Med (human plasma [2]) of the same compound?
**A.** 0.716

**Q.** What about the Fup.point (human plasma [2]) of the same compound?
**A.** 0.706

**Q.** And the Fstable.Med (human plasma [3])?
**A.** 0.0018

**Q.** What about the Unstable (human plasma [3]) of the same compound?
**A.** Y

**Q.** And the “% remaining_PPB” value (human plasma [3]; human)?
**A.** 8%

**Q.** What about the PPB_Stab_Fail (human plasma [3]; human) of the same compound?
**A.** 1

**Q.** With `NC(=O)C(F)(F)C(F)(F)F` [Pentafluoropropionamide] as the compound, how does the “Concentration (nM), Time 120 min” value ([5]; both, human, 120 min, 1 μM) read?
**A.** 809.577 nM

**Q.** And the “In Vitro Clint” value ([5]; both, human, hepatocytes, 1 μM)?
**A.** 0.00 μL/min/10^6 cells

**Q.** And the “in vitro CLint” value ([5]; both, human, hepatocytes, 1 μM)?
**A.** 0 mL/min/106 cells

**Q.** What about the “Linear Regression Results, Best-Fit Values, Slope” value [5] of the same compound?
**A.** -0.00227

**Q.** What about the “Bkgd-Sub Clearance (µL/min/106 hepatocytes)” value ([5]; human, hepatocytes) of the same compound?
**A.** 0.00 µL/min/106 hepatocytes

**Q.** And the Bkgd_adj_Clint ([5]; human, hepatocytes)?
**A.** 0.00

**Q.** What about the “Unadj Clint” value ([5]; human, hepatocytes) of the same compound?
**A.** 0.00

**Q.** What about the “Unadj in vitro Clint” value ([5]; human, hepatocytes) of the same compound?
**A.** 0.00

**Q.** What about the “clearance rate in hepatocytes” value ([5]; human, hepatocytes) of the same compound?
**A.** no clearance

**Q.** And the Clint.1.Med ([5]; human, s9)?
**A.** 0

**Q.** And the “No Cells BkgdCl, Clearance” value ([1]; 1 μM)?
**A.** 7.66

**Q.** And the half-life at 1 μM ([1]; both sexes, human, hepatocytes)?
**A.** 3.65 h

**Q.** And the “HT BkgdCl, Clearance” value ([1]; both, human, 1 μM)?
**A.** 6.324

**Q.** What about the Hep_Stab_Fail ([1]; both, human, 120 min, 1 μM) of the same compound?
**A.** 0

**Q.** What about the half-life at 1 μM ([1]; buffer) of the same compound?
**A.** 3.02 h

**Q.** What about the “HT BkgdCl, Slope” value [1, 11] of the same compound?
**A.** -0.003162

**Q.** And the “No Cells BkgdCl, Slope” value ([1]; no cells control, 0 vs 240 min)?
**A.** -0.00383

**Q.** And the Css [6, 13]?
**A.** 0.44 mg/L and 2.69 uM

**Q.** What about the Clhep [6] of the same compound?
**A.** 0.000 L/h

**Q.** What about the AED [6] of the same compound?
**A.** 7.4314 mg/kg/day

**Q.** What about the Fub [6] of the same compound?
**A.** 1

**Q.** What about the Css [6, 14] of the same compound?
**A.** 2.69 µM

**Q.** And the Css ([6]; human steady-state plasma concentration, assuming 1 mg/kg/day dosage, listed as pentafluoropropionamide)?
**A.** 2.1 to 2.7 µM

**Q.** And the CLint [6]?
**A.** 0 µL/min

**Q.** And the Fup.Med (human plasma [2]; both, human, 5 h, 10 μM)?
**A.** 0.754

**Q.** And the Fup.point (human plasma [2]; both, human, 5 h, 10 μM)?
**A.** 0.789

**Q.** What about the Unstable (human plasma [3]) of the same compound?
**A.** Y

**Q.** And the Fstable.Med (human plasma [3]; both, human, 5 h, 10 μM)?
**A.** 0.19

**Q.** And the “Mean Stability” value (human plasma [3]; both, human, 5 h, 10 μM)?
**A.** 0.711

**Q.** And the “Stability (T5hr/ T1hr), Run-specific Avg” value (human plasma [3]; both, human, 5 h, 10 μM)?
**A.** 0.719

**Q.** What about the PPB_Stab_Fail (human plasma [3]; both, human, 5 h, 10 μM) of the same compound?
**A.** 0

**Q.** What about the LOEC (human primary cells; [15]) of the same compound?
**A.** 20.00 µM

**Q.** And the LOEC (human primary cells; [16])?
**A.** 20 µM

**Q.** What about the fraction unbound at 5 h, 10 μM (in vitro; Fraction Unbound (fu), Run-specific Avg) of the same compound?
**A.** 0.81

**Q.** And the fraction unbound at 5 h, 10 μM (in vitro; Fraction Unbound (fu), replicates A, B, C)?
**A.** 0.788

**Q.** What about the fraction unbound at 5 h, 10 μM (in vitro; Mean Fu) of the same compound?
**A.** 0.809

**Q.** And the fraction unbound at 5 h, 10 μM (in vitro; Mean fu)?
**A.** 0.809
